{"source": "paper PMC3575809", "about": "(Nucleic Acids Research, 2012)", "molecules": {"B1": {"name": "28-mer ssDNA (ssDNA)", "DNA": "CCGAATCAGTCCGACGACGCATCAGCAC"}}, "key": {"Mtb DnaG [1]": {"target": "T1, Mtb DnaG (Mycobacterium tuberculosis, UniProt P9WNW1)", "T1 sequence (P9WNW1 1-639)": "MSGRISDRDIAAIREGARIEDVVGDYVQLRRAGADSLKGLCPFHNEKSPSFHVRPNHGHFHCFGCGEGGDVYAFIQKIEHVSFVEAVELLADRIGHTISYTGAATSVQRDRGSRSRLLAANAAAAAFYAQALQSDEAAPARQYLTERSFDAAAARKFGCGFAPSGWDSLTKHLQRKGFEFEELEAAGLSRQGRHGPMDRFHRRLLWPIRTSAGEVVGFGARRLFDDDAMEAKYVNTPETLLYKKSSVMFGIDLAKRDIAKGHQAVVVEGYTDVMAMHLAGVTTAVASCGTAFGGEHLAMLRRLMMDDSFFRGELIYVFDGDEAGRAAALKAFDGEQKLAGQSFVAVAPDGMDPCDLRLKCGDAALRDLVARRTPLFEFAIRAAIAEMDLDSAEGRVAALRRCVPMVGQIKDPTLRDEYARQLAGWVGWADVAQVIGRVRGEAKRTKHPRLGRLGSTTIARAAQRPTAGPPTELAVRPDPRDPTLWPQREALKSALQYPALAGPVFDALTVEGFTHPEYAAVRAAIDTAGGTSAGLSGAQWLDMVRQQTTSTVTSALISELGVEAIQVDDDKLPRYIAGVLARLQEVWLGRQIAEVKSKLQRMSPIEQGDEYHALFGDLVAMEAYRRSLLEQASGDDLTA", "assay_type": "biochemical", "settings": "for signal change in HTS: 13 µM compound, not enzyme activation but phosphate from the compound"}, "Mtb DnaG [2]": {"target": "T1, Mtb DnaG", "test": "Mode of inhibition assays", "assay_type": "biochemical", "settings": "for mode of inhibition: Lineweaver–Burk plots, varied NTP and DNA; for n, number of inhibitor molecules bound: alternative model with high cooperativity; for n, number of binding sites on Mtb DnaG: global fit, non-cooperative model"}, "Mtb DnaG [3]": {"target": "T1, Mtb DnaG", "assay_type": "biochemical", "settings": "10 µM inhibitor (Figure 3); gel, Figures 3 and 9"}, "Mtb DnaG [4]": {"target": "T1, Mtb DnaG", "test": "Dose–response coupled primase–pyrophosphatase assay", "settings": "for Hill coefficient: dose–response fit, 1.25 µM DNA, 110 µM NTP, 0.5 µM Mtb DnaG"}, "human DNA polymerase α": {"tested_on": "human DNA polymerase α", "settings": "cited from earlier work"}, "human primase": {"tested_on": "human primase", "settings": "cited from earlier work"}, "Mtb DnaG (DNA primase)": {"target": "T2, Mtb DnaG (DNA primase) (Mycobacterium tuberculosis H37Rv, UniProt P9WNW1 1-639)", "T2 sequence": "T1 sequence (P9WNW1 1-639)", "test": "fluorescence anisotropy"}}}
{"molecule": "O=C(O)CN(CCN(CC(=O)O)CC(=O)O)CC(=O)O", "note": "[EDTA, ethylenediaminetetraacetic acid]", "values": [{"measurement": "inhibition by positive control in HTS", "setting": "Mtb DnaG [1]", "value": "full inhibition"}]}
{"molecule": "CC(C)N(CCC(C(N)=O)(c1ccccc1)c1ccccn1)C(C)C", "note": "(stereo not shown) [disopyramide phosphate]", "values": [{"measurement": "signal change in HTS", "setting": "Mtb DnaG [1]", "value": "increase in absorbance"}]}
{"molecule": "COc1cccc2c1C(=O)c1c(O)c3c(c(O)c1C2=O)C[C@@](O)(C(=O)CO)C[C@@H]3O[C@H]1C[C@H](N)[C@H](O)[C@H](C)O1", "note": "[doxorubicin]", "values": [{"measurement": "Ki", "setting": "Mtb DnaG [2]", "value": "2.5 ± 0.5", "unit": "µM"}, {"measurement": "mode of inhibition", "setting": "Mtb DnaG [2]", "value": "competitive inhibitors with respect to both NTP and DNA"}, {"measurement": "n, number of inhibitor molecules bound", "setting": "Mtb DnaG [2]", "value": 2}, {"measurement": "n, number of binding sites on Mtb DnaG", "setting": "Mtb DnaG [2]", "value": 3}, {"measurement": "effect on synthesis of radioactively labelled RNA products", "setting": "Mtb DnaG [3]", "value": "potent Mtb DnaG inhibitors"}, {"measurement": "IC50", "setting": "Mtb DnaG [4]", "value": "7.7 ± 0.5", "unit": "µM"}, {"measurement": "Hill coefficient", "setting": "Mtb DnaG [4]", "value": "2.0 ± 0.2"}]}
{"molecule": "O=c1oc2c(O)c(O)cc3c(=O)oc4c(O)c(O)cc1c4c23", "note": "[ellagic acid]", "values": [{"measurement": "IC50", "setting": "Mtb DnaG [4]", "value": "22 ± 3", "unit": "µM"}]}
{"molecule": "O=C(O)c1ccccc1OP(=O)(O)O", "note": "[fosfosal]", "values": [{"measurement": "signal change in HTS", "setting": "Mtb DnaG [1]", "value": "increase in absorbance"}]}
{"molecule": "CO[C@H]1C[C@H](O[C@H]2[C@H](C)[C@@H](O[C@@H]3O[C@H](C)C[C@H](N(C)C)[C@H]3O)[C@@H](C)C[C@@]3(CO3)C(=O)[C@H](C)[C@@H](O)[C@@H](C)[C@@H](C)OC(=O)[C@@H]2C)O[C@@H](C)[C@@H]1O", "note": "[oleandomycin phosphate]", "values": [{"measurement": "signal change in HTS", "setting": "Mtb DnaG [1]", "value": "increase in absorbance"}]}
{"molecule": "Cc1ccc(C(=O)Nc2ccc(S(=O)(=O)O)c3cc(S(=O)(=O)O)cc(S(=O)(=O)O)c23)cc1NC(=O)c1cccc(NC(=O)Nc2cccc(C(=O)Nc3cc(C(=O)Nc4ccc(S(=O)(=O)O)c5cc(S(=O)(=O)O)cc(S(=O)(=O)O)c45)ccc3C)c2)c1", "note": "[suramin]", "values": [{"measurement": "Ki", "setting": "Mtb DnaG [2]", "value": "3.2 ± 0.5", "unit": "µM"}, {"measurement": "mode of inhibition", "setting": "Mtb DnaG [2]", "value": "competitive inhibitors with respect to both NTP and DNA"}, {"measurement": "n, number of inhibitor molecules bound", "setting": "Mtb DnaG [2]", "value": 3}, {"measurement": "n, number of binding sites on Mtb DnaG", "setting": "Mtb DnaG [2]", "value": 4}, {"measurement": "effect on synthesis of radioactively labelled RNA products", "setting": "Mtb DnaG [3]", "value": "potent Mtb DnaG inhibitors"}, {"measurement": "mode of inhibition", "setting": "human DNA polymerase α", "value": "DNA- and NTP-competitive inhibitor of human DNA polymerase α and primase, respectively"}, {"measurement": "mode of inhibition", "setting": "human primase", "value": "DNA- and NTP-competitive inhibitor of human DNA polymerase α and primase, respectively"}, {"measurement": "IC50", "setting": "Mtb DnaG [4]", "value": "6.3 ± 0.2", "unit": "µM"}, {"measurement": "Hill coefficient", "setting": "Mtb DnaG [4]", "value": "2.9 ± 0.1"}]}
{"molecule": "B1", "values": [{"measurement": "Kd", "setting": "Mtb DnaG (DNA primase)", "value": "0.036 ± 0.016", "unit": "µM"}]}
